Data taken from patent US9242985B2, “Structural mimetics of proline-rich peptides and use thereof” (priority 2011, dated 2016).
No end group written: not given here.

Tests used:
Assay type in all cases: binding
[1] = target: T1, EVH1 domain (VASP-EVH1) (Homo sapiens, UniProt P50552); test: Bonding affinity to EVH1 domain by fluorescence titration
Text: (§1) With the aid of the synthetic compound 85, by way of an example, the ligand peptides were synthetized with partially or completely substituted proline sequences and then examined for their interaction with the EVH1 domain (p=component 85). It was found therein that, due to the insertion of the mimetic 85, it was possible to increase the bonding affinity of the ligand peptides relative to the domain.
(§2) This is summarized in Table 1 below, which lists the bonding affinities of the ligand peptides as well as of the underlying native peptide ligands.
(§3) The bonding affinities were determined by means of fluorescence titration and isothermal calorimetry (p=component 85, wherein x denotes the already known PPII-mimetic amino acid according to structure 86 (presently as Fmoc-protected amino acid); and “2-Cl—F” stands for 2-Cl-phenylalanine).

[2] = target: T1, EVH1 domain (VASP-EVH1); test: Bonding affinity to EVH1 domain by isothermal calorimetry (ITC)
Text: as §1, §2, §3

[3] = target: VASP-EVH1 (Homo sapiens, UniProt P50552); test: Further experiments: bonding affinity of ligand peptides to the domain (method not given)
Chain of VASP-EVH1 (P50552 2-113 limits assumed): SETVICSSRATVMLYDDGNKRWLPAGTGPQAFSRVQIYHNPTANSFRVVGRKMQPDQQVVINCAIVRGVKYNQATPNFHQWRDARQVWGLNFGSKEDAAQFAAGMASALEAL
Text: In addition, the observed increase in affinity with the compounds according to the invention allows for the first time ever to forego using natural amino acids completely, while still preserving the ability to bind to the EVH1 domains: […]

[4] = target: VASP-EVH1 domain (Homo sapiens, UniProt P50552)
Chain of VASP-EVH1 domain (P50552 2-113): as the sequence (P50552 2-113 limits assumed) above
Text: In addition, based on a number of different test ligand peptides, it was possible to gain an overview of the bonding affinities.

T1 sequence (P50552 2-113): as the sequence (P50552 2-113 limits assumed) above

Work on CC(=O)N[C@@H](CO)C(=O)N[C@@H](Cc1ccccc1)C(=O)N[C@@H](CCC(=O)O)C(=O)N[C@@H](Cc1ccccc1Cl)C(=O)N1CCC[C@H]1C(=O)N1CCC[C@H]1C(=O)N1CCC[C@H]1C(=O)N1CCC[C@H]1C(=O)N[C@H](C(=O)N[C@@H](CCC(=O)O)C(=O)N[C@@H](CC(=O)O)C(=O)N[C@@H](CCC(=O)O)C(=O)N[C@@H](CC(C)C)C(N)=O)[C@@H](C)O yielded a Kd [1] of 5 µM and a Kd [2] of 2 µM.
Compound Ac-FPPPP [Ac-(SEQ ID NO: 4)-OH] has a Kd [3] of over 500 µM.
For FPPPPT [FPPPPT], the “bonding affinity KD” value [4] was “no measurable affinity”.
